PubChem BioAssay AID2060495 (Molecular Pharmacology Branch, DTP, NCI, 2025)

Test system: 521955-158-R2-J5-PDC complex spheroid viability
Test: Anticancer human tumor 521955-158-R2-J5-PDC patient-derived pancreatic carcinoma cell line growth inhibition [GQUAD]
Conditions: for IC50: curve of first compound; for viability, T/C: stronger effect = lower value
In short: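 Tumor cells were grown as complex spheroids with HUVEC endothelial cells and mesenchymal stem cells as stroma. G-quadruplex stabilizers were combined with targeted agents over half-log dilutions from near the clinical Cmax, or from 10 microM.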

[1] = second compound 0.0316 µM, first compound 0.0316 µM
[2] = second compound 0.0316 µM, first compound 0.1 µM
[3] = second compound 0.0316 µM, first compound 0.316 µM
[4] = second compound 0.0316 µM, first compound 1 µM
[5] = second compound 0.0316 µM, first compound 3.16 µM
[6] = second compound 0.0316 µM, first compound 10 µM
[7] = second compound 0.1 µM, first compound 0.0316 µM
[8] = second compound 0.1 µM, first compound 0.1 µM
[9] = second compound 0.1 µM, first compound 0.316 µM
[10] = second compound 0.1 µM, first compound 1 µM
[11] = second compound 0.1 µM, first compound 3.16 µM
[12] = second compound 0.1 µM, first compound 10 µM
[13] = second compound 0.316 µM, first compound 0.0316 µM
[14] = second compound 0.316 µM, first compound 0.1 µM
[15] = second compound 0.316 µM, first compound 0.316 µM
[16] = second compound 0.316 µM, first compound 1 µM
[17] = second compound 0.316 µM, first compound 3.16 µM
[18] = second compound 0.316 µM, first compound 10 µM
[19] = second compound 1 µM, first compound 0.0316 µM
[20] = second compound 1 µM, first compound 0.1 µM
[21] = second compound 1 µM, first compound 0.316 µM
[22] = second compound 1 µM, first compound 1 µM
[23] = second compound 1 µM, first compound 3.16 µM
[24] = second compound 1 µM, first compound 10 µM
[25] = second compound 3.16 µM, first compound 0.0316 µM
[26] = second compound 3.16 µM, first compound 0.1 µM
[27] = second compound 3.16 µM, first compound 0.316 µM
[28] = second compound 3.16 µM, first compound 1 µM
[29] = second compound 3.16 µM, first compound 3.16 µM
[30] = second compound 3.16 µM, first compound 10 µM
[31] = second compound 10 µM, first compound 0.0316 µM
[32] = second compound 10 µM, first compound 0.1 µM
[33] = second compound 10 µM, first compound 0.316 µM
[34] = second compound 10 µM, first compound 1 µM
[35] = second compound 10 µM, first compound 3.16 µM
[36] = second compound 10 µM, first compound 10 µM
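Further: spheroids exposed to agents for one week before reading.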
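Wherever viability, T/C is given: 100% = DMSO vehicle control viability.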

C=CC(=O)N1CCN(c2nc(=O)n(-c3c(C)ccnc3C(C)C)c3nc(-c4c(O)cccc4F)c(F)cc23)C(C)C1 (stereo unspecified) + Cc1[nH]c2ccc(F)cc2c1-c1nc2c3cccnc3c3ncccc3c2[nH]1
IC50 (second compound 0.0316 µM): > 10 µM | IC50 (second compound 0.1 µM): > 10 µM | IC50 (second compound 0.316 µM): > 10 µM | IC50 (second compound 1 µM): > 10 µM | IC50 (second compound 3.16 µM): > 10 µM | IC50 (second compound 10 µM): > 10 µM | viability, T/C [1]: 90.3% | viability, T/C [2]: 101% | viability, T/C [3]: 97.7% | viability, T/C [4]: 94.3% | viability, T/C [5]: 124% | viability, T/C [6]: 67.2% | viability, T/C [7]: 93% | viability, T/C [8]: 106% | viability, T/C [9]: 117% | viability, T/C [10]: 102% | viability, T/C [11]: 102% | viability, T/C [12]: 74.8% | viability, T/C [13]: 80.9% | viability, T/C [14]: 96.9% | viability, T/C [15]: 106% | viability, T/C [16]: 104% | viability, T/C [17]: 100% | viability, T/C [18]: 77.9% | viability, T/C [19]: 92.9% | viability, T/C [20]: 102% | viability, T/C [21]: 107% | viability, T/C [22]: 110% | viability, T/C [23]: 128% | viability, T/C [24]: 93.2% | viability, T/C [25]: 93.9% | viability, T/C [26]: 105% | viability, T/C [27]: 98% | viability, T/C [28]: 118% | viability, T/C [29]: 121% | viability, T/C [30]: 79.4% | viability, T/C [31]: 98.2% | viability, T/C [32]: 98.3% | viability, T/C [33]: 118% | viability, T/C [34]: 129% | viability, T/C [35]: 129% | viability, T/C [36]: 101%

CC(C)n1c(=O)n(C)c2cnc3cc(F)c(-c4ccc(OCCCN5CCCCC5)nc4)cc3c21 + Cc1[nH]c2ccc(F)cc2c1-c1nc2c3cccnc3c3ncccc3c2[nH]1
IC50 (second compound 0.0316 µM): > 10 µM | IC50 (second compound 0.1 µM): > 10 µM | IC50 (second compound 0.316 µM): > 10 µM | IC50 (second compound 1 µM): > 10 µM | IC50 (second compound 3.16 µM): > 10 µM | IC50 (second compound 10 µM): > 10 µM | viability, T/C [1]: 116% | viability, T/C [2]: 90.8% | viability, T/C [3]: 109% | viability, T/C [4]: 84.5% | viability, T/C [5]: 101% | viability, T/C [6]: 94.4% | viability, T/C [7]: 94.8% | viability, T/C [8]: 114% | viability, T/C [9]: 97.7% | viability, T/C [10]: 105% | viability, T/C [11]: 115% | viability, T/C [12]: 84.8% | viability, T/C [13]: 105% | viability, T/C [14]: 108% | viability, T/C [15]: 116% | viability, T/C [16]: 104% | viability, T/C [17]: 90.8% | viability, T/C [18]: 83.7% | viability, T/C [19]: 101% | viability, T/C [20]: 113% | viability, T/C [21]: 104% | viability, T/C [22]: 94.9% | viability, T/C [23]: 108% | viability, T/C [24]: 91.1% | viability, T/C [25]: 107% | viability, T/C [26]: 110% | viability, T/C [27]: 109% | viability, T/C [28]: 102% | viability, T/C [29]: 115% | viability, T/C [30]: 94.2% | viability, T/C [31]: 114% | viability, T/C [32]: 92.8% | viability, T/C [33]: 115% | viability, T/C [34]: 110% | viability, T/C [35]: 108% | viability, T/C [36]: 79.1%

CC1COCCN1c1cc(-c2ccnn2C)c2ccnc(-c3ccn[nH]3)c2n1 (stereo unspecified) + Cc1[nH]c2ccc(F)cc2c1-c1nc2c3cccnc3c3ncccc3c2[nH]1
IC50 (second compound 0.0316 µM): 0.0551 µM | IC50 (second compound 0.1 µM): 0.0526 µM | IC50 (second compound 0.316 µM): 0.0568 µM | IC50 (second compound 1 µM): 0.059 µM | IC50 (second compound 3.16 µM): 0.0584 µM | IC50 (second compound 10 µM): 0.0535 µM | viability, T/C [1]: 81% | viability, T/C [2]: 16.8% | viability, T/C [3]: 10.3% | viability, T/C [4]: 13.1% | viability, T/C [5]: 18.4% | viability, T/C [6]: 18.2% | viability, T/C [7]: 73.7% | viability, T/C [8]: 20.6% | viability, T/C [9]: 8.98% | viability, T/C [10]: 12.4% | viability, T/C [11]: 18.1% | viability, T/C [12]: 18.8% | viability, T/C [13]: 84.4% | viability, T/C [14]: 16.7% | viability, T/C [15]: 13.3% | viability, T/C [16]: 12.7% | viability, T/C [17]: 18.5% | viability, T/C [18]: 19.8% | viability, T/C [19]: 90.1% | viability, T/C [20]: 16.1% | viability, T/C [21]: 9.88% | viability, T/C [22]: 11.1% | viability, T/C [23]: 19.8% | viability, T/C [24]: 21.6% | viability, T/C [25]: 88.1% | viability, T/C [26]: 15.8% | viability, T/C [27]: 9.58% | viability, T/C [28]: 11.2% | viability, T/C [29]: 21.6% | viability, T/C [30]: 25% | viability, T/C [31]: 77.7% | viability, T/C [32]: 16% | viability, T/C [33]: 10.9% | viability, T/C [34]: 15.9% | viability, T/C [35]: 19.3% | viability, T/C [36]: 24%
